Laboratory results reported in patent US10123993B2, “Cyclic ureas as inhibitors of rock” (BRISTOL-MYERS SQUIBB COMPANY, priority 2015, dated 2018).

Biological target: ROCK2 (Homo sapiens, UniProt O75116)
Experiment: ROCK2 kinase inhibition assay (Caliper LABCHIP, FITC peptide substrate)
Format: biochemical
Conditions: 5 μM ATP, 1.5 μM peptide substrate; value ranges
Procedure: The effectiveness of compounds of the present invention as ROCK inhibitors can be determined in a 30 μL assay containing 20 mM HEPES, pH 7.5, 20 mM MgCl2, 0.015% Brij-35, 4 mM DTT, 5 μM ATP and 1.5 μM peptide substrate (FITC-AHA-AKRRRLSSLRA-OH). Compounds were dissolved in DMSO so that the final concentration of DMSO was <2%, and the reaction was initiated with Rho kinase variants. After incubation, the reaction was terminated by the addition of EDTA and the phosphorylated and non-phosphorylated peptides separated using a LABCHIP® 3000 Reader (Caliper Life Sciences). […] Compounds were tested in dose-response format, and the inhibition of kinase activity was calculated at each concentration of compound. The inhibition data were fit using a curve-fitting program to determine the IC50; i.e., the concentration of compound required to inhibit 50% of kinase activity.
Representative Examples were tested in the ROCK2 assay described above and found having ROCK inhibitory activity.

Chain of ROCK2 (O75116 whole entry, species assumed): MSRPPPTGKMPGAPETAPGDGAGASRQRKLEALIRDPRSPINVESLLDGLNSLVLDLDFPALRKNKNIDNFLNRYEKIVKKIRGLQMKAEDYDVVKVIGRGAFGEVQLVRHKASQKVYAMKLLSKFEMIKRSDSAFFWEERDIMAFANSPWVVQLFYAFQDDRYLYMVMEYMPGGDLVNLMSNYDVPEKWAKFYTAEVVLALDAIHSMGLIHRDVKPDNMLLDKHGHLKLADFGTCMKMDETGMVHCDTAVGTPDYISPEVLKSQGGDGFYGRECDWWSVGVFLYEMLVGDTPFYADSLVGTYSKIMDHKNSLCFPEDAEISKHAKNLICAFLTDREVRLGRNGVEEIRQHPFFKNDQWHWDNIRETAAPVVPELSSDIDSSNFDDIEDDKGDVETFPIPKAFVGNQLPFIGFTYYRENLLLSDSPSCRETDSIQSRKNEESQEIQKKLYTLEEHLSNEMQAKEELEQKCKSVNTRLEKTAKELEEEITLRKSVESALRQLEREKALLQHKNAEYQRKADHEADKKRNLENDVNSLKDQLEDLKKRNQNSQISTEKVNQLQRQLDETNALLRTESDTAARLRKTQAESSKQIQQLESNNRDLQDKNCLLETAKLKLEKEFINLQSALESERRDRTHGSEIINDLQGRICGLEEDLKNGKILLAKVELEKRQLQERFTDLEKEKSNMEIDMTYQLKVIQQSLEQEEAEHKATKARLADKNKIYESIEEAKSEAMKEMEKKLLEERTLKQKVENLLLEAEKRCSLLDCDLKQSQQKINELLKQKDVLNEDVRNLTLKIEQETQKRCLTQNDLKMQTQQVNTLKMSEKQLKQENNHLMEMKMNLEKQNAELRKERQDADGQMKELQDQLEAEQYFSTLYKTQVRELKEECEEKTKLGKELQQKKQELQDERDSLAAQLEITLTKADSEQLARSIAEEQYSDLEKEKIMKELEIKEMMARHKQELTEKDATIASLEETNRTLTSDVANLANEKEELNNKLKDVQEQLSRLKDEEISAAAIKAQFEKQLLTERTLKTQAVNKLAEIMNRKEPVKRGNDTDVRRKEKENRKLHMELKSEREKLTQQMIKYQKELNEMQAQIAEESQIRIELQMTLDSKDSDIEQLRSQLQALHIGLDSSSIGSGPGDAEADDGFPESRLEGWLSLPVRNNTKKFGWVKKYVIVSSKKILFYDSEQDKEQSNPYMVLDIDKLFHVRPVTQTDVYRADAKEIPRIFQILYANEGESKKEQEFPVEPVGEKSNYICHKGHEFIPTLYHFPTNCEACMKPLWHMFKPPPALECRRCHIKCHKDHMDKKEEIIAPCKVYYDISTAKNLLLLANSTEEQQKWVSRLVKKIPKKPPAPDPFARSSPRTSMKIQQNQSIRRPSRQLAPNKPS

Compared with `CCNC(=O)C(c1cccc(OC)c1)N1CCN(c2ccc(-c3cn[nH]c3)cc2)C1=O` (single isomer, unassigned) [Example 289, 2-(3-(4-(1H-Pyrazol-4-yl)phenyl)-2-oxoimidazolidin-1-yl)-N-ethyl-2-(3-methoxyphenyl)acetamide], `CNC(=O)C(c1cccc(OC)c1)N1CCN(c2ccc(-c3cn[nH]c3)cc2)C1=O` (single isomer, unassigned) [Example 291, 2-(3-(4-(1H-pyrazol-4-yl)phenyl)-2-oxoimidazolidin-1-yl)-2-(3-methoxyphenyl)-N-methylacetamide] is higher in IC50: 2.1 to 20 nM for the first, 20.1 to 200 nM for the second.

First: CCNC(=O)C(c1cccc(OC)c1)N1CCN(c2ccc(-c3cn[nH]c3)cc2)C1=O (single isomer, unassigned) [Example 290, 2-(3-(4-(1H-Pyrazol-4-yl)phenyl)-2-oxoimidazolidin-1-yl)-N-ethyl-2-(3-methoxyphenyl)acetamide]
Second: CNC(=O)C(c1cccc(OC)c1)N1CCN(c2ccc(-c3cn[nH]c3)cc2)C1=O (single isomer, unassigned) [Example 292, 2-(3-(4-(1H-pyrazol-4-yl)phenyl)-2-oxoimidazolidin-1-yl)-2-(3-methoxyphenyl)-N-methylacetamide]
The IC50 of the first is higher: 20.1 to 200 nM for the first, 2.1 to 20 nM for the second. The second is the more potent here.

First: COc1cccc(C(C(=O)NCC(C)C)N2CCN(c3ccc(-c4cn[nH]c4)cc3)C2=O)c1 (single isomer, unassigned) [Example 293, 2-(3-(4-(1H-pyrazol-4-yl)phenyl)-2-oxoimidazolidin-1-yl)-N-isobutyl-2-(3-methoxyphenyl)acetamide]
Second: COc1cccc(C(C(=O)NCC(C)(C)O)N2CCN(c3ccc(-c4cn[nH]c4)cc3)C2=O)c1 (single isomer, unassigned) [Example 303, 2-(3-(4-(1H-pyrazol-4-yl)phenyl)-2-oxoimidazolidin-1-yl)-N-(2-hydroxy-2-methylpropyl)-2-(3-methoxyphenyl)acetamide]
The IC50 of the first is higher: 200 to 2000 nM for the first, 20.1 to 200 nM for the second. The second is the more potent here.

First: COc1cccc(C(C(=O)NCC(C)C)N2CCN(c3ccc(-c4cn[nH]c4)cc3)C2=O)c1 (single isomer, unassigned) [Example 294, 2-(3-(4-(1H-pyrazol-4-yl)phenyl)-2-oxoimidazolidin-1-yl)-N-isobutyl-2-(3-methoxyphenyl)acetamide]
Second: COc1cccc(C(C(=O)NCC2CC2)N2CCN(c3ccc(-c4cn[nH]c4)cc3)C2=O)c1 (single isomer, unassigned) [Example 296, 2-(3-(4-(1H-pyrazol-4-yl)phenyl)-2-oxoimidazolidin-1-yl)-N-(cyclopropylmethyl)-2-(3-methoxyphenyl)acetamide]
The IC50 of the first is lower: 2.1 to 20 nM for the first, 20.1 to 200 nM for the second. The first is the more potent here.

`COc1cccc(C(C(N)=O)N2CCN(c3ccc(-c4cn[nH]c4)cc3)C2=O)c1` (single isomer, unassigned) [Example 295, 2-(3-(4-(1H-pyrazol-4-yl)phenyl)-2-oxoimidazolidin-1-yl)-2-(3-methoxyphenyl)acetamide] and `COc1cccc(C(C(=O)NC2CC2)N2CCN(c3ccc(-c4cn[nH]c4)cc3)C2=O)c1` (single isomer, unassigned) [Example 300, 2-(3-(4-(1H-pyrazol-4-yl)phenyl)-2-oxoimidazolidin-1-yl)-N-cyclopropyl-2-(3-methoxyphenyl)acetamide] fall in the same range of IC50: 20.1 to 200 nM for the first, 20.1 to 200 nM for the second.

First: COc1cccc(C(C(=O)NCC2CC2)N2CCN(c3ccc(-c4cn[nH]c4)cc3)C2=O)c1 (single isomer, unassigned) [Example 297, 2-(3-(4-(1H-pyrazol-4-yl)phenyl)-2-oxoimidazolidin-1-yl)-N-(cyclopropylmethyl)-2-(3-methoxyphenyl)acetamide]
Second: COc1cccc(C(C(=O)NC2CC2)N2CCN(c3ccc(-c4cn[nH]c4)cc3)C2=O)c1 (single isomer, unassigned) [Example 301, 2-(3-(4-(1H-pyrazol-4-yl)phenyl)-2-oxoimidazolidin-1-yl)-N-cyclopropyl-2-(3-methoxyphenyl)acetamide]
The IC50 of the first is higher: 200 to 2000 nM for the first, 2.1 to 20 nM for the second. The second is the more potent here.

`CNC(=O)C(c1ccccc1)N1CCN(c2ccc(-c3cn[nH]c3)cc2)C1=O` (single isomer, unassigned) [Example 299, 2-(3-(4-(1H-pyrazol-4-yl)phenyl)-2-oxoimidazolidin-1-yl)-N-methyl-2-phenylacetamide] and `CNCC(c1cccc(OC)c1)N1CCN(c2ccc(-c3cn[nH]c3)cc2)C1=O` (single isomer, unassigned) [Example 309, 1-(4-(1H-Pyrazol-4-yl)phenyl)-3-(1-(3-methoxyphenyl)-2-(methylamino)ethyl)imidazolidin-2-one] fall in the same range of IC50: 20.1 to 200 nM for the first, 20.1 to 200 nM for the second.

First: CNC(=O)C(C)(c1cccc(OC)c1)N1CCN(c2ccc(-c3cn[nH]c3)cc2)C1=O (single isomer, unassigned) [Example 304, 2-(3-(4-(1H-Pyrazol-4-yl)phenyl)-2-oxoimidazolidin-1-yl)-2-(3-methoxyphenyl)-N-methylpropanamide]
Second: CNCC(c1cccc(OC)c1)N1CCN(c2ccc(-c3cn[nH]c3)cc2)C1=O (single isomer, unassigned) [Example 310, 1-(4-(1H-Pyrazol-4-yl)phenyl)-3-(1-(3-methoxyphenyl)-2-(methylamino)ethyl)imidazolidin-2-one]
The IC50 of the first is higher: 200 to 2000 nM for the first, 2.1 to 20 nM for the second.

Compared with `COc1cccc(C(CO)n2ccn(-c3ccc(-c4cn[nH]c4)cc3)c2=O)c1` (single isomer, unassigned) [Example 323, 1-(4-(1H-Pyrazol-4-yl)phenyl)-3-(2-hydroxy-1-(3-methoxyphenyl)ethyl)-1H-imidazol-2(3H)-one], `COc1cccc(C(C)n2ccn(-c3ccc(-c4cn[nH]c4)cc3)c2=O)c1` (single isomer, unassigned) [Example 339, 1-(4-(1H-pyrazol-4-yl)phenyl)-3-(1-(3-methoxyphenyl)ethyl)-1H-imidazol-2(3H)-one] is lower in IC50: 200 to 2000 nM for the first, under 2 nM for the second.

First: COc1cccc(C(CO)n2ccn(-c3ccc(-c4cn[nH]c4)cc3)c2=O)c1 (single isomer, unassigned) [Example 324, 1-(4-(1H-Pyrazol-4-yl)phenyl)-3-(2-hydroxy-1-(3-methoxyphenyl)ethyl)-1H-imidazol-2(3H)-one]
Second: COc1cccc(C(C)n2ccn(-c3ccc(-c4cn[nH]c4)cc3)c2=O)c1 (single isomer, unassigned) [Example 340, 1-(4-(1H-pyrazol-4-yl)phenyl)-3-(l-(3-methoxyphenyl)ethyl)-1H-imidazol-2(3H)-one]
The IC50 of the first is lower: under 2 nM for the first, 20.1 to 200 nM for the second.

First: COc1cccc(C(C)n2ccn(-c3ccc(-c4ccnc5[nH]ccc45)cc3)c2=O)c1 (single isomer, unassigned) [Example 325, 1-(4-(1H-Pyrrolo[2,3-b]pyridin-4-yl)phenyl)-3-(1-(3-methoxyphenyl)ethyl)-1H-imidazol-2(3H)-one]
Second: COc1cccc(C(C)n2ccn(-c3ccc(-c4ccnc(F)c4)cc3)c2=O)c1 (single isomer, unassigned) [Example 327, 1-(4-(2-fluoropyridin-4-yl)phenyl)-3-(1-(3-methoxyphenyl)ethyl)-1H-imidazol-2(3H)-one]
The IC50 of the first is lower: 20.1 to 200 nM for the first, 200 to 2000 nM for the second. The first is the more potent here.

For `COc1cccc(C(C)n2ccn(-c3ccc(-c4ccnc5[nH]ccc45)cc3)c2=O)c1` (single isomer, unassigned) [Example 326, 1-(4-(1H-Pyrrolo[2,3-b]pyridin-4-yl)phenyl)-3-(1-(3-methoxyphenyl)ethyl)-1H-imidazol-2(3H)-one], the IC50 was 2.1 to 20 nM.
